One assay addresses WT KRAS (Homo sapiens, UniProt P01116). The experiment in a line: KRAS WT Probe Displacement Assay (TR-FRET, GDP-loaded). It counts as binding. The conditions noted are these: KRAS WT, read-out: KRAS^WT Probe Displacement Assay IC50. An excerpt:
(§1) The synthetic routes of probe 1 and 2, which have been disclosed in PCT/CN2022/070676, are hereby incorporated herein.

The next assay addresses KRAS G12D (Homo sapiens, UniProt P01116, G12D). The assay is described as follows: KRAS G12D Probe Displacement Assay (TR-FRET, GDP-loaded). In kind it is binding. To be noted: KRAS G12D, read-out: KRAS^G12D Probe Displacement Assay IC50.
Source text: as §1
(Time-resolved FRET reads energy transfer from a long-lived donor to a nearby acceptor.)

pIC50: −log10 of the molar value.

Sequence of KRAS G12D (P01116 1-188 isoform P01116-2 G12D): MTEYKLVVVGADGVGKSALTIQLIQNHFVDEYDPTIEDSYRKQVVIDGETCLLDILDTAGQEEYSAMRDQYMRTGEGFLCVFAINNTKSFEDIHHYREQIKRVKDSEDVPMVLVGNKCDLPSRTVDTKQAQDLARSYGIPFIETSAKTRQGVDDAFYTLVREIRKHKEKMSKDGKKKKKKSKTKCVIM
Sequence of WT KRAS (P01116 1-188 isoform P01116-2): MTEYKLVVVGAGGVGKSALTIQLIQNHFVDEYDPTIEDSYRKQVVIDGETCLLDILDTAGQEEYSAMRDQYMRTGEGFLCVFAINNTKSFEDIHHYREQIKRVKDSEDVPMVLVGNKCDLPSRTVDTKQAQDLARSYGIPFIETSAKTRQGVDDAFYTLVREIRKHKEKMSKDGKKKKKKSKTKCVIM

Consider `Cc1cc(N)cc(-c2nc3c4c(nc(OCC5(CN6C[C@@H]7[C@@H](CF)[C@@H]7C6)CC5)nc4c2F)N2C[C@H]4CC[C@H](N4)[C@H]2CCO3)c1C(F)(F)F` [Example 170, 3-((6aR,7S,10R)-1-fluoro-13-((1-(((1R,5S,6R)-6-(fluoromethyl)-3-azabicyclo[3.1.0]hexan-3-yl)methyl)cyclopropyl)methoxy)-5,6,6a,7,8,9,10,11-octahydro-4-oxa-3,11a,12,14,15-pentaaza-7,10-methanocyclohepta[4,5]cycloocta[1,2,3-de]naphthalen-2-yl)-5-methyl-4-(trifluoromethyl)aniline], for which the values for the pIC50 on WT KRAS and at KRAS G12D were 6.00 to 8.52 and greater than 9.52, respectively.

For the compound `Cc1cc(N)cc(-c2nc3c4c(nc(OCC5(CN6C[C@H]7C[C@H]7[C@@H]6CO)CC5)nc4c2F)N2C[C@H]4CC[C@H](N4)[C@H]2CCO3)c1C(F)(F)F` [Example 96, ((1R,2R,5S)-3-((1-((((6aR,7S,10R)-2-(5-amino-3-methyl-2-(trifluoromethyl)phenyl)-1-fluoro-5,6,6a,7,8,9,10,11-octahydro-4-oxa-3,11a,12,14,15-pentaaza-7,10-methanocyclohepta [4,5]cycloocta[1,2,3-de]naphthalen-13-yl)oxy)methyl)cyclopropyl)methyl)-3-azabicyclo [3.1.0]hexan-2-yl) methanol], the pIC50 (commonly the negative decadic logarithm of the IC50, by convention in mol/L) on WT KRAS was 6.00 to 8.52; on KRAS G12D, greater than 9.52.

In the case of `Cc1nc(N)cc(-c2nc3c4c(nc(OCC5(CN6CCC(=CF)CC6)CC5)nc4c2F)N2C[C@H]4CC[C@H](N4)[C@H]2CCO3)c1C(F)(F)F` [Example 155, 4-((6aR,7S,10R)-1-fluoro-13-((1-((4-(fluoromethylene)piperidin-1-yl)methyl)cyclopropyl)methoxy)-5,6,6a,7,8,9,10,11-octahydro-4-oxa-3,11a,12,14,15-pentaaza-7,10-methanocyclohepta[4,5]cycloocta [1,2,3-de]naphthalen-2-yl)-6-methyl-5-(trifluoromethyl)pyridin-2-amine], the pIC50 at WT KRAS is 6.00 to 8.52; on KRAS G12D, greater than 9.52.

As to `Cc1cc(N)cc(-c2nc3c4c(nc(OCC5(CN6CCC6)CC5(F)F)nc4c2F)N2C[C@H]4CC[C@H](N4)[C@H]2CCO3)c1C(F)(F)F` (stereo partly drawn) [Example 19, 3-((6aR,7S,10R)-13-((1-(azetidin-1-ylmethyl)-2,2-difluorocyclopropyl)methoxy)-1-fluoro-5,6,6a,7,8,9,10,11-octahydro-4-oxa-3,11a,12,14,15-pentaaza-7,10-methanocyclohepta[4,5]cycloocta[1,2,3-de]naphthalen-2-yl)-5-methyl-4-(trifluoromethyl)aniline], the results for the pIC50 on WT KRAS and at KRAS G12D were 6.00 to 8.52 and greater than 9.52, respectively.

Regarding `Cc1cc(N)cc(-c2nc3c4c(nc(OCC5(CN6CCC(O)(C(F)(F)F)C6)CC5)nc4c2F)N2C[C@H]4CC[C@H](N4)[C@H]2CCO3)c1C(F)(F)F` (mixture of isomers) [Example 92, 1-((1-((((6aR,7S, 10R)-2-(5-amino-3-methyl-2-(trifluoromethyl)phenyl)-1-fluoro-5,6,6a,7,8,9,10,11-octahydro-4-oxa-3,11a,12,14,15-pentaaza-7,10-methanocyclohepta [4,5]cycloocta[1,2,3-de]naphthalen-13-yl)oxy)methyl)cyclopropyl)methyl)-3-(trifluoromethyl) pyrrolidin-3-ol], the pIC50 on WT KRAS is 6.00 to 8.52; at KRAS G12D, greater than 9.52.

On to `Nc1cc(Cl)c(C(F)(F)F)c(-c2nc3c4c(nc(OCC5(CN6CCC(=C(F)F)C6)CC5)nc4c2F)N2C[C@H]4CC[C@H](N4)[C@H]2CCO3)c1` [Example 151, 3-chloro-5-((6aR,7S,10R)-13-((1-((3-(difluoromethylene)pyrrolidin-1-yl)methyl)cyclopropyl)methoxy)-1-fluoro-5,6,6a,7,8,9,10,11-octahydro-4-oxa-3,11a,12,14,15-pentaaza-7,10-methano-cyclohepta[4,5]cycloocta [1,2,3-de]naphthalen-2-yl)-4-(trifluoromethyl)aniline], for which the pIC50 is 6.00 to 8.52 on WT KRAS and greater than 9.52 on KRAS G12D.

Regarding `[2H]C([2H])([2H])c1cc(N)cc(-c2nc3c4c(nc(OC[C@@]5(CN(C)C)CC5(F)F)nc4c2F)N2C[C@H]4CC[C@H](N4)[C@H]2CCO3)c1C(F)(F)F` [Example 46, 3-((6aR,7S,10R)-13-(((S)-1-((dimethylamino)methyl)-2,2-difluorocyclopropyl)methoxy)-1-fluoro-5,6,6a,7,8,9,10,11-octahydro-4-oxa-3,11a,12,14,15-pentaaza-7,10-methanocyclohepta[4,5]cycloocta [1,2,3-de]naphthalen-2-yl)-5-(methyl-d3)-4-(trifluoromethyl)aniline], the pIC50 at WT KRAS was 6.00 to 8.52; at KRAS G12D, greater than 9.52.

As to `Cc1cc(N)cc(-c2nc3c4c(nc(O[C@@H](C)[C@@H]5[C@H]6C[C@H]6CN5C)nc4c2F)N2C[C@H]4CC[C@H](N4)[C@H]2CCO3)c1C(F)(F)F` [Example 223, 3-((6aR,7S,10R)-1-fluoro-13-((S)-1-((1S,2S,5R)-3-methyl-3-azabicyclo[3.1.0]hexan-2-yl)ethoxy)-5,6,6a,7,8,9,10,11-octahydro-4-oxa-3,11a,12,14,15-pentaaza-7,10-methanocyclohepta[4,5]cycloocta[1,2,3-de]naphthalen-2-yl)-5-methyl-4-(trifluoromethyl)aniline], the results for the pIC50 on WT KRAS and at KRAS G12D were 6.00 to 8.52 and greater than 9.52, respectively.

In the case of `Cc1cc(N)cc(-c2nc3c4c(nc(OCC5(CN6C[C@H]7C[C@@H]6CO7)CC5)nc4c2F)N2C[C@H]4CC[C@H](N4)[C@H]2CCO3)c1C(F)(F)F` [Example 65, 3-((6aR,7S,10R)-13-((1-(((1R,4R)-2-oxa-5-azabicyclo[2.2.1]heptan-5-yl)methyl)cyclopropyl)methoxy)-1-fluoro-5,6,6a,7,8,9,10,11-octahydro-4-oxa-3,11a,12,14,15-pentaaza-7,10-methanocyclohepta[4,5]cycloocta [1,2,3-de]naphthalen-2-yl)-5-methyl-4-(trifluoromethyl)aniline], the negative logarithm of the IC50 (pIC50) is 6.00 to 8.52 at WT KRAS and greater than 9.52 at KRAS G12D.

Consider `Cc1cc(N)cc(-c2nc3c4c(nc(OC[C@]5(O)COC[C@H]5N(C)C)nc4c2F)N2C[C@H]4CC[C@H](N4)[C@H]2CCO3)c1C(F)(F)F` [Example 131, (3R,4R)-3-((((6aR,7S,10R)-2-(5-amino-3-methyl-2-(trifluoromethyl)phenyl)-1-fluoro-5,6,6a,7,8,9,10,11-octahydro-4-oxa-3,11a,12,14,15-pentaaza-7,10-methanocyclohepta[4,5]cycloocta [1,2,3-de]naphthalen-13-yl)oxy)methyl)-4-(dimethylamino)tetrahydrofuran-3-ol], for which the pIC50 on WT KRAS is 6.00 to 8.52; on KRAS G12D, 8.52 to 9.52.

For `[2H]C([2H])([2H])N1CCC(C(F)F)C(C)(C([2H])([2H])Oc2nc3c4c(nc(-c5cc(N)cc(Cl)c5C(F)(F)F)c(F)c4n2)OCC[C@@H]2[C@@H]4CC[C@H](CN32)N4)C1` (single isomer, unassigned) [Example 247], the pIC50 was 8.52 to 9.52 on WT KRAS and greater than 9.52 on KRAS G12D.

Consider `Cc1cc(N)cc(-c2nc3c4c(nc(OCC5(CN6CC(F)C6)CC5)nc4c2F)N2C[C@H]4CC[C@H](N4)[C@H]2CCO3)c1C(F)(F)F` [Example 69, 3-((6aR,7S,10R)-1-fluoro-13-((1-((3-fluoroazetidin-1-yl)methyl)cyclopropyl)methoxy)-5,6,6a,7,8,9,10,11-octahydro-4-oxa-3,11a,12,14,15-pentaaza-7,10-methanocyclohepta[4,5]cycloocta [1,2,3-de]naphthalen-2-yl)-5-methyl-4-(trifluoromethyl)aniline], for which the values for the negative logarithm of the IC50 (pIC50) on WT KRAS and on KRAS G12D were 6.00 to 8.52 and greater than 9.52, respectively.

`CN(C)CC1(COc2nc3c4c(nc(-c5cc(N)cc(Cl)c5C(F)(F)F)c(F)c4n2)OCC[C@@H]2[C@@H]4CC[C@H](CN32)N4)CC1(F)F` (mixture of isomers) [Example 18, 3-chloro-5-((6aR,7S,10R)-13-((1-((dimethylamino)methyl)-2,2-difluorocyclopropyl)methoxy)-1-fluoro-5,6,6a,7,8,9,10,11-octahydro-4-oxa-3,11a,12,14,15-pentaaza-7,10-methanocyclohepta[4,5]cycloocta [1,2,3-de]naphthalen-2-yl)-4-(trifluoromethyl)aniline]: the values for the pIC50 on WT KRAS and on KRAS G12D were 6.00 to 8.52 and greater than 9.52, respectively.

For `Nc1cc(Cl)c(C(F)(F)F)c(-c2nc3c4c(nc(OC[C@@]56C[C@@H](F)CN5CC5(CC5)C6)nc4c2F)N2C[C@H]4CC[C@H](N4)[C@H]2CCO3)c1` [Example 207, 3-chloro-5-((6aR,7S,10R)-1-fluoro-13-(((6′R,7a′R)-6′-fluorodihydro-1′H,3′H-spiro[cyclopropane-1,2′-pyrrolizin]-7a′(5′H)-yl)methoxy)-5,6,6a,7,8,9,10,11-octahydro-4-oxa-3,11a,12,14,15-pentaaza[7,10]methanocyclohepta[4,5]cycloocta[1,2,3-de]naphthalen-2-yl)-4-(trifluoromethyl)aniline], the pIC50 at WT KRAS was 8.52 to 9.52; on KRAS G12D it was greater than 9.52.

Consider `C=C1CN2C[C@H]3C[C@H]3[C@]2(COc2nc3c4c(nc(-c5cc(N)cc(C)c5C(F)(F)F)c(F)c4n2)OCC[C@@H]2[C@@H]4CC[C@H](CN32)N4)C1` [Example 212, 3-((6aR,7S,10R)-1-fluoro-13-(((1aS,6bR)-5-methylenehexahydrocyclopropa[a]pyrrolizin-6a(4H)-yl)methoxy)-5,6,6a,7,8,9,10,11-octahydro-4-oxa-3,11a,12,14,15-pentaaza-7,10-methanocyclohepta[4,5]cycloocta[1,2,3-de]naphthalen-2-yl)-5-methyl-4-(trifluoromethyl)aniline], for which the values for the negative logarithm of the IC50 (pIC50) at WT KRAS and on KRAS G12D were 6.00 to 8.52 and greater than 9.52, respectively.

These data come from patent publication US20260347373A1, “HETEROCYCLIC COMPOUNDS, COMPOSITIONS THEREOF, AND METHODS OF TREATMENT THEREWITH” (BeOne Medicines I GmbH, priority 2023, published 2026).
